Reference: the NIST ThermoML archive (doi:10.1021/je101199g)
Numbers after ± are expanded uncertainties.

Settings: Crystal

Normal melting temperature	SMILES
146.23 ± 1.2 °C	Cc1ncc[nH]1 [2-methylimidazole]
5.01 ± 0.62 °C	COC(=O)OC [dimethyl carbonate]
80.81 ± 1.2 °C	O=C(Oc1ccccc1)Oc1ccccc1 [diphenyl carbonate]
23.36 ± 0.62 °C	CCCCCCCCCCCCO [dodecan-1-ol]
